Measurements: patent EP3053944B1, “METHOD FOR PRODUCING POLYALKYLENE GLYCOL DERIVATIVE HAVING AMINO GROUP AT END, POLYMERIZATION INITIATOR FOR USE IN THE SAME, AND ALCOHOL COMPOUND AS RAW MATERIAL FOR THE POLYMERIZATION INITIATOR” (Shin-Etsu Chemical Co., Ltd., priority 2014, dated 2016)

What was measured:
Type in all cases: physicochemical
[1] = Solubility of polymerization initiators in polymerization solvents (visual observation); design: key to solubility to polymerization solvents: Toluene / solubility to polymerization solvents: THF: Excellent: In the case in which cloudiness was not observed at all in the solution by visual observation, the initiator was shown as "excellent"; Poor: in the case in which cloudiness was observed or the initiator did not dissolve at all, or in the case in which the initiator decomposed when the alkoxide was formed from the initiator, the initiator was shown as "poor"; conditions: for solubility to polymerization solvents: THF: initiator dissolved in THF at 20 wt.%; for solubility to polymerization solvents: THF / solubility to polymerization solvents: Toluene: visual observation; for solubility to polymerization solvents: Toluene: initiator dissolved in toluene at 20 wt.%; for dissolution in the solvent(s): summary in words of Table 8, THF or toluene, 20 wt.%
Source text: Results of solubility of the initiators 1-2, 6-7, 9-10 and 12, reference initiators 3-5, 8 and 11, and comparative initiators 1 to 8 to polymerization solvents are shown below. THF in each of the products of the initiators 1-2, 6-7, 9-10 and 12, reference initiators 3-5, 8 and 11, and the comparative initiators 1 to 8 synthesized above was distilled away under reduced pressure to extract the polymerization initiators. The results obtained by dissolving each polymerization initiator in each polymerization solvent at a concentration of 20 wt.% are shown. […]

[2] = Stability of the initiator when the alkoxide is formed (migration of protective group); conditions: on synthesis of the alkoxide
Source text: Since the silicon-oxygen bond is generally stronger than the silicon-nitrogen bond, there is a possibility that exchange reaction between the silicon-nitrogen bond and the silicon-oxygen bond progresses within a molecule during synthesis of a silyl-protected amino group-containing alkoxide in the case in which a five-membered ring or six-membered ring structure containing a silicon-oxygen bond can be formed. Therefore, when polymerization is tried using, for example, a compound represented by the following general formula (0a) as a polymerization initiator, polymerization progresses from the amino group side, not from the alkoxide side, and a target polyalkylene glycol derivative cannot be obtained. In contrast, in the polymerization initiator (for example, the following formulas (1a) and (2a)) represented by the general formulas (1) and/or (2) for use in the present embodiment 2, production of the five-membered or six-membered ring containing a silicon-oxygen bond is suppressed by extending the length of a chain that connects nitrogen and oxygen that constitutes O^-M^+ to 4 or more, so that a stable structure can be formed in a state of being an alkoxide. As a result thereof, polymerization progresses from the alkoxide side, and the target polyalkylene glycol derivative can be obtained. [drawing 36]

[3] = Visual check for salt precipitation and cloudiness in the THF solution after initiator synthesis
Source text: Among others, as the solvent for use in the [Pre-Step 2], the same solvent as will be used as the polymerization solvent in the subsequent [Step a] as will be described later is preferably used. The reason is because whether the polymerization initiator synthesized in the [Pre-Step 2] dissolves or not in the polymerization solvent for use in the [Step a] can be confirmed in advance during the synthesis of the polymerization initiator in the [Pre-Step 2]. […] […] By confirming whether the precipitation of a salt and […] of the polymerization initiator represented by the general formula (I) in THF, the solubility of the polymerization initiator in the polymerization solvent in the subsequent [Step a] can be confirmed in advance.
In a glove box under a nitrogen atmosphere, […], and after the mineral oil was washed with hexane to be separated, vacuum drying was performed for about two hours to obtain 0.50 g (12.5 mmol) of potassium hydride. Into the flask, 7.71 g of distilled THF was added with a syringe, and 4.44 g (12.8 mmol) of the compound represented by the general formula (iA) was dripped at normal temperature. Stirring was performed at normal temperature for 1 hour and then at 50°C for 2 hours, so that 12.40 g (1.02 mmol/g) of a THF solution of the compound represented by the general formula (IA) was produced. […]

Row | solubility to polymerization solvents: THF [1] | dissolution in the solvent(s) [1] | Structure (SMILES) | solubility to polymerization solvents: Toluene [1] | stability of the initiator [2] | Precipitation of a salt and cloudiness ([3]; (IA) mass/THF solution mass=22.3 wt.%, prepared with potassium naphthalene) | Precipitation of a salt and cloudiness ([3]; (IA) mass/THF solution mass=39.8 wt.%, prepared with potassium hydride)
1 | Poor | did not dissolve in the solvents | C=CCN(CC=C)CCCO [Comparative initiator 3, reference compound] | Poor | – | – | –
2 | Poor | did not dissolve in the solvents | O=C1c2ccccc2C(=O)N1CCCO [Comparative initiator 4, reference compound] | Poor | – | – | –
3 | Poor | did not dissolve in the solvents | OCCCN(Cc1ccccc1)Cc1ccccc1 [Comparative initiator 7, reference compound] | Poor | – | – | –
4 | Poor | did not dissolve in the solvents | CC(C)(C)OC(=O)N(CCCO)C(=O)OC(C)(C)C [Comparative initiator 8, reference compound] | Poor | – | – | –
5 | Excellent | dissolved in a solvent | CC(C)(C)OC(=O)N(CCCOCCO)C(=O)OC(C)(C)C [Initiator 9] | – | – | – | –
6 | Excellent | dissolved in a solvent | C=CCN(CC=C)CCCOCCO [Ref 3] | – | – | – | –
7 | Excellent | dissolved in a solvent | C=CCN(CC=C)CCCOCCOCCO [Ref 4] | – | – | – | –
8 | Excellent | dissolved in a solvent | O=C1c2ccccc2C(=O)N1CCCOCCOCCOCCO [Ref 5] | – | – | – | –
9 | Excellent | dissolved in a solvent | OCCOCCOCCOCCCN(Cc1ccccc1)Cc1ccccc1 [Ref 8] | – | – | – | –
10 | – | dissolved in a solvent | C=CCN(CC=C)CCCCCCO [Ref 11] | Excellent | – | – | –
11 | – | – | CC[Si](CC)(CC)N(CCCOCCO)[Si](CC)(CC)CC [iA] | – | – | not observed | not observed

Row | Structure (SMILES) | solubility to polymerization solvents: THF [1] | dissolution in the solvent(s) [1] | solubility to polymerization solvents: Toluene [1] | stability of the initiator [2] | Precipitation of a salt and cloudiness ([3]; (IA) mass/THF solution mass=22.3 wt.%, prepared with potassium naphthalene) | Precipitation of a salt and cloudiness ([3]; (IA) mass/THF solution mass=39.8 wt.%, prepared with potassium hydride)
12 | CC[Si](CC)(CC)N(CCCO)[Si](CC)(CC)CC [Comparative initiator 1, reference compound] | Poor | – | Poor | changes in the position protected by a protective group progressed | – | –
13 | C[Si](C)(C)N(CCCO)[Si](C)(C)C [Comparative initiator 2, reference compound] | Poor | – | Poor | changes in the position protected by a protective group progressed | – | –
14 | CC(C)(C)[Si](C)(C)NCCCO [Comparative initiator 5, reference compound] | Poor | – | Poor | changes in the position protected by a protective group progressed | – | –
15 | C[Si]1(C)CC[Si](C)(C)N1CCCO [Comparative initiator 6, reference compound] | Poor | – | Poor | changes in the position protected by a protective group progressed | – | –
16 | CC[Si](CC)(CC)N(CCCOCCO)[Si](CC)(CC)CC [Initiator 1] | Excellent | dissolved in the solvent | – | stably existed | – | –
17 | CC[Si](CC)(CC)N(CCCOCCOCCO)[Si](CC)(CC)CC [Initiator 2] | Excellent | dissolved in the solvent | – | stably existed | – | –
18 | CC(C)(C)[Si](C)(C)NCCCOCCO [Initiator 6] | Excellent | dissolved in the solvent | – | stably existed | – | –
19 | C[Si]1(C)CC[Si](C)(C)N1CCCOCCO [Initiator 7] | Excellent | dissolved in the solvent | – | stably existed | – | –
20 | CC[Si](CC)(CC)N(CCCCCCO)[Si](CC)(CC)CC [Initiator 10] | – | dissolved in the solvent | Excellent | stably existed | – | –
21 | C[Si]1(C)CC[Si](C)(C)N1CCCCCCO [Initiator 12] | – | dissolved in the solvent | Excellent | stably existed | – | –
